Measurements from PMC6133161, “Thiazoles with cyclopropyl fragment as antifungal, anticonvulsant, and anti-Toxoplasma gondii agents: synthesis, toxicity evaluation, and molecular docking study” (Medicinal Chemistry Research, 2018).
≈ marks a conversion by molar mass, not a printed value. Read-outs that look alike come from different tables or passages of the source. Blank lines part the entries; values can stand above or below the compound they belong to.

Key:
[1] = system: Toxoplasma gondii RH strain; assay: [3H]-uracil incorporation assay in VERO host cells; conditions: Toxoplasma gondii, Vero, read-out: Proliferation of Toxoplasma gondii RH strain ± SD
C. lusitaniae = assay: Broth microdilution MIC/MFC, clinical isolate; format: cell-based; conditions: C. lusitaniae clinical strain
Description: (§1) In the study of antifungal activity of the compounds 3a–3j, 15 clinical strains of different species of yeasts from Candida species, namely C. albicans, C. dubliniensis C. famata, C. inconspicua, C. krusei, C. tropicalis, C. glabrata, C. lambica, C. kefyr, C. lusitaniae, C. parapsilosis, C. guilliermondii, C. lusitaniae, C. pulcherrima and C. sake were also used. These fungi were isolated by the author (from Department of Pharmaceutical Microbiology of Medical University in Lublin, Poland) from different clinical materials, e.g., from upper respiratory tract of hospitalized patients including cancer patients (i.e., with non-small cell lung cancer or hematological malignancies). Some patients were after pre-operative or post-operative chemotherapy (treated with etoposide or cis-platin given in doses according to the standard procedures), patients with chronic hepatitis C (undergoing peginterferon and ribavirin therapy or without antiviral therapy), patients with diabetes, elderly people, aged of 65 years old or older, staying in close population, such as a care centre and people staying outside the home care. The Ethical Committee of the Medical University of Lublin approved the study protocol (No. KE-0254/75/2011). The isolates were identified by standard diagnostic methods—biochemical microtest, e.g., API 20C AUX, ID 32C, API Candida (bioMérieux) on the basis of assimilation of various substrates. All the used microbial cultures were first subcultured on nutrient agar or Sabouraud agar for bacteria and fungi, respectively. The RPMI 1640 with MOPS (for fungi) were inoculated with the suspensions of fungal species. Microbial suspensions were prepared in sterile saline (0.85% NaCl) with an optical density of 0.5 McFarland standard scale (Wiegand et al. [2008]). Samples containing examined compounds were dissolved in dimethyl sulfoxide (DMSO). Furthermore, fungal suspensions were put onto Petri dishes with solid media containing 2 mg/ml of the tested compounds followed incubation under appropriate conditions. The inhibition of microbial growth was judged by comparison with a control culture prepared without any sample tested. Nystatin (Sigma) was used as a reference antifungal compound. Subsequently MIC minimal inhibitory concentration (MIC) of the compounds was examined by the microdilution broth method, using their two-fold dilutions in RPMI 1640 broth with MOPS prepared in 96-well polystyrene plates. Final concentrations of the compounds ranged from 1000 to 0.0038 µg/ml. Microbial suspensions were prepared in sterile saline with an optical density of 0.5 McFarland standard. Next fungal suspension was added per each well containing broth and various concentrations of the examined compounds. After incubation, the MIC was assessed spectrophotometric as the lowest concentration of the samples showing complete fungal growth inhibition. Appropriate DMSO, growth and sterile controls were carried out. The medium with no tested substances was used as a control (Wiegand et al. [2008]). The minimal fungicidal concentration (MFC) are defined as the lowest concentration of the compounds that is required to kill a particular fungal species. MFC was determined by removing the culture using for MIC determinations from each well and spotting onto appropriate agar medium. The plates were incubated. The lowest compounds concentration with no visible growth observed was assessed as a fungicidal concentration. All the experiments were repeated three times and representative data are presented.
(§2) The MFC/MIC ratios were calculated in order to determine fungicidal (MFC/MIC ≤ 4) or fungistatic (MFC/MIC > 4) effect of the tested compounds (O’Donnell et al. [2010]).

C. pulcherrima = assay: Broth microdilution MIC/MFC, clinical isolate; format: cell-based; conditions: C. pulcherrima clinical strain
Description: as §1, §2

C. famata = assay: Broth microdilution MIC/MFC, clinical isolate; format: cell-based; conditions: C. famata clinical strain
Description: as §1, §2

C. krusei = assay: Broth microdilution MIC/MFC, clinical isolate; format: cell-based; conditions: C. krusei clinical strain
Description: as §1, §2

C. sake = assay: Broth microdilution MIC/MFC, clinical isolate; format: cell-based; conditions: C. sake clinical strain
Description: as §1, §2

C. guilliermondii = assay: Broth microdilution MIC/MFC, clinical isolate; format: cell-based; conditions: C. guilliermondii clinical strain
Description: as §1, §2

C. tropicalis = assay: Broth microdilution MIC/MFC, clinical isolate; format: cell-based; conditions: C. tropicalis clinical strain
Description: as §1, §2

C. inconspicua = assay: Broth microdilution MIC/MFC, clinical isolate; format: cell-based; conditions: C. inconspicua clinical strain
Description: as §1, §2

C. albicans = assay: Broth microdilution MIC/MFC, clinical isolate; format: cell-based; conditions: C. albicans clinical strain
Description: as §1, §2

C. kefyr = assay: Broth microdilution MIC/MFC, clinical isolate; format: cell-based; conditions: C. kefyr clinical strain
Description: as §1, §2

C. dubliniensis = assay: Broth microdilution MIC/MFC, clinical isolate; format: cell-based; conditions: C. dubliniensis clinical strain
Description: as §1, §2

C. glabrata = assay: Broth microdilution MIC/MFC, clinical isolate; format: cell-based; conditions: C. glabrata clinical strain
Description: as §1, §2

C. parapsilosis = assay: Broth microdilution MIC/MFC, clinical isolate; format: cell-based; conditions: C. parapsilosis clinical strain
Description: as §1, §2

C. lambica = assay: Broth microdilution MIC/MFC, clinical isolate; format: cell-based; conditions: C. lambica clinical strain
Description: as §1, §2

SMILES: FC(F)(F)c1ccc(-c2csc(N/N=C/C3CC3)n2)cc1 [Compound 3e, (E)-2-(2-(Cyclopropylmethylene)hydrazinyl)-4-(4-(trifluoromethyl)phenyl)thiazole]
activity at 0.98 µg/mL [1]: 94.4 ± 6.92%
activity at 1.95 µg/mL [1]: 100 ± 2.25%
activity at 3.91 µg/mL [1]: 110 ± 4.37%

MIC (C. lusitaniae; Clavispora lusitaniae, read-out: MIC): 0.48 µg/mL (≈ 1.69 µM)
MIC (C. pulcherrima; read-out: MIC): 62.5 µg/mL (≈ 220 µM)
MIC (C. famata; Debaryomyces hansenii, read-out: MIC): 1.95 µg/mL (≈ 6.86 µM)
MIC (C. krusei; Pichia kudriavzevii, read-out: MIC): 0.98 µg/mL (≈ 3.45 µM)
MIC (C. sake; Fermentozyma sake, read-out: MIC): 0.48 µg/mL (≈ 1.69 µM)
MIC (C. guilliermondii; Meyerozyma guilliermondii, read-out: MIC): 0.98 µg/mL (≈ 3.45 µM)
MIC (C. tropicalis; Candida tropicalis, read-out: MIC): 0.24 µg/mL (≈ 0.844 µM)
MIC (C. inconspicua; Pichia inconspicua, read-out: MIC): 0.48 µg/mL (≈ 1.69 µM)
MIC (C. albicans; Candida albicans, read-out: MIC): 0.48 µg/mL (≈ 1.69 µM)
MIC (C. kefyr; Kluyveromyces marxianus, read-out: MIC): 7.81 µg/mL (≈ 27.5 µM)
MIC (C. dubliniensis; Candida dubliniensis, read-out: MIC): 0.015 µg/mL (≈ 0.0528 µM)
MIC (C. glabrata; Nakaseomyces glabratus, read-out: MIC): 31.2 µg/mL (≈ 110 µM)
MIC (C. parapsilosis; Lodderomyces parapsilosis, read-out: MIC): 0.24 µg/mL (≈ 0.844 µM)
SMILES: [N-]=[N+]=Nc1ccc(-c2csc(N/N=C/C3CC3)n2)cc1 [Compound 3i, (E)-4-(4-Azidophenyl)-2-(2-(cyclopropylmethylene)hydrazinyl)thiazole]
MFC (C. lusitaniae; Clavispora lusitaniae, read-out: MFC): 1.95 µg/mL (≈ 6.86 µM)
MFC (C. pulcherrima; read-out: MFC): > 1000 µg/mL
MFC (C. famata; Debaryomyces hansenii, read-out: MFC): 7.81 µg/mL (≈ 27.5 µM)
MFC (C. krusei; Pichia kudriavzevii, read-out: MFC): 7.81 µg/mL (≈ 27.5 µM)
MFC (C. sake; Fermentozyma sake, read-out: MFC): 7.81 µg/mL (≈ 27.5 µM)
MFC (C. guilliermondii; Meyerozyma guilliermondii, read-out: MFC): 15.6 µg/mL (≈ 54.9 µM)
MFC (C. tropicalis; Candida tropicalis, read-out: MFC): 1.95 µg/mL (≈ 6.86 µM)
MFC (C. inconspicua; Pichia inconspicua, read-out: MFC): 0.98 µg/mL (≈ 3.45 µM)
MFC (C. albicans; Candida albicans, read-out: MFC): 15.6 µg/mL (≈ 54.9 µM)
MFC (C. kefyr; Kluyveromyces marxianus, read-out: MFC): > 1000 µg/mL
MFC (C. dubliniensis; Candida dubliniensis, read-out: MFC): 0.12 µg/mL (≈ 0.422 µM)
MFC (C. glabrata; Nakaseomyces glabratus, read-out: MFC): > 1000 µg/mL
MFC (C. parapsilosis; Lodderomyces parapsilosis, read-out: MFC): 0.98 µg/mL (≈ 3.45 µM)
activity at 0.98 µg/mL [1]: 95.3 ± 10.6%
activity at 1.95 µg/mL [1]: 93.3 ± 4.67%
activity at 3.91 µg/mL [1]: 105 ± 2.24%
activity at 7.81 µg/mL [1]: 92.2 ± 3.71%
activity at 15.63 µg/mL [1]: 98.8 ± 4.29%

SMILES: C[C@@H]1[C@H](O)[C@@H](C)/C=C/C=C/CC/C=C/C=C/C=C/C=C/C(O[C@H]2O[C@H](C)[C@@H](O)[C@H](N)[C@@H]2O)CC2O[C@](O)(CC(O)C(O)CCC(O)CC(O)CC(O)CC(=O)O[C@H]1C)CC(O)C2C(=O)O (stereo partly shown) [Nystatin, reference compound]
MFC (C. lusitaniae): 0.24 µg/mL (≈ 0.259 µM)
MFC/MIC (C. lusitaniae): 2
MIC (C. lusitaniae): 0.12 µg/mL (≈ 0.13 µM)
MFC (C. lambica): 0.98 µg/mL (≈ 1.06 µM)
MFC/MIC (C. lambica): 2
MIC (C. lambica): 0.48 µg/mL (≈ 0.518 µM)
MFC (C. pulcherrima): 0.24 µg/mL (≈ 0.259 µM)
MFC/MIC (C. pulcherrima): 2
MIC (C. pulcherrima): 0.12 µg/mL (≈ 0.13 µM)
MFC (C. famata): 0.12 µg/mL (≈ 0.13 µM)
MFC/MIC (C. famata): 2
MIC (C. famata): 0.06 µg/mL (≈ 0.0648 µM)
MFC (C. krusei): 0.98 µg/mL (≈ 1.06 µM)
MFC/MIC (C. krusei): 4
MIC (C. krusei): 0.24 µg/mL (≈ 0.259 µM)
MFC (C. sake): 0.12 µg/mL (≈ 0.13 µM)
MFC/MIC (C. sake): 2
MIC (C. sake): 0.06 µg/mL (≈ 0.0648 µM)
MFC (C. guilliermondii): 0.12 µg/mL (≈ 0.13 µM)
MFC/MIC (C. guilliermondii): 2
MIC (C. guilliermondii): 0.06 µg/mL (≈ 0.0648 µM)
MFC (C. tropicalis): 0.06 µg/mL (≈ 0.0648 µM)
MFC/MIC (C. tropicalis): 4
MIC (C. tropicalis): 0.015 µg/mL (≈ 0.0162 µM)
MFC (C. inconspicua): 0.48 µg/mL (≈ 0.518 µM)
MFC/MIC (C. inconspicua): 4
MIC (C. inconspicua): 0.12 µg/mL (≈ 0.13 µM)
MFC (C. albicans): 0.24 µg/mL (≈ 0.259 µM)
MFC/MIC (C. albicans): 1
MIC (C. albicans): 0.24 µg/mL (≈ 0.259 µM)
MFC (C. kefyr): 0.24 µg/mL (≈ 0.259 µM)
MFC/MIC (C. kefyr): 2
MIC (C. kefyr): 0.12 µg/mL (≈ 0.13 µM)
MFC (C. dubliniensis): 0.12 µg/mL (≈ 0.13 µM)
MFC/MIC (C. dubliniensis): 1
MIC (C. dubliniensis): 0.12 µg/mL (≈ 0.13 µM)
MFC (C. glabrata): 0.48 µg/mL (≈ 0.518 µM)
MFC/MIC (C. glabrata): 1
MIC (C. glabrata): 0.48 µg/mL (≈ 0.518 µM)
MFC (C. parapsilosis): 0.48 µg/mL (≈ 0.518 µM)
MFC/MIC (C. parapsilosis): 4
MIC (C. parapsilosis): 0.12 µg/mL (≈ 0.13 µM)
